EC50 data for 28 compounds are collected here from patent US9132127B2, “Substituted pyrido[2,3-B]pyrazines as IP receptor agonists” (Novartis AG, priority 2010, dated 2015).

pEC50: −log10 of the molar value.

T1 sequence (P43119 whole entry): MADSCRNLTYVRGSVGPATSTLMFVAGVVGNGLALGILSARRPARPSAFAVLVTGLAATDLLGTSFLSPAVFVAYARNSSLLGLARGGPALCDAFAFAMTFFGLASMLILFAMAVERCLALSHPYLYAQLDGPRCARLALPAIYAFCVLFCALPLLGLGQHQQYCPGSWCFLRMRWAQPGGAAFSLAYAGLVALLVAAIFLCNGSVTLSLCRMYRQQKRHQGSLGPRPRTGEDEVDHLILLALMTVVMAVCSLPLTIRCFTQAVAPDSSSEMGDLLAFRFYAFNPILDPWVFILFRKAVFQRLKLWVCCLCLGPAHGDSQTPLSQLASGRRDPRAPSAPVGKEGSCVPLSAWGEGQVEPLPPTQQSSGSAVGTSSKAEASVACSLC

One assay has as its target T1, IP receptor (Homo sapiens, UniProt P43119).
T1 construct: expressed in transfected cells; host or cells: CHO cells stably expressing the IP receptor (CHO-IP)
In words: cAMP accumulation in CHO cells stably expressing the IP receptor (CHO-IP), PerkinElmer AlphaScreen assay. The assay is classed as cell-based. As to conditions: 1 hour at room temperature, Table 1, read-out: EC50. The procedure:
Activity of compounds at the IP receptor (IP receptor) is assessed by measuring cAMP accumulation in CHO cells stably expressing the IP receptor (CHO-IP) using the PerkinElmer AlphaScreen assay. This technology measures the endogenous production of cAMP, in a non-radioactive luminescence proximity homogenous assay. A biological reaction occurs between streptavidin coated donor beads, biotinylated cAMP and anti-cAMP acceptor beads, bringing the donor and acceptor beads close enough together so that upon excitation a fluorescence signal is produced. On production of endogenous cAMP, competition between the biotinylated cAMP and cellular-derived cAMP causes a reduction in the fluorescent signal. The reduction in signal is proportional to the amount of cAMP being produced, thus it is possible to quantify the amount of cAMP being produced on stimulation with agonist.
Test and reference compounds are prepared at 100×[final] in 100% DMSO, and diluted 1:3 using a Biomek Fx (Beckman Coulter). This is followed by an intermediate dilution to give 5×[final] in assay buffer (HBSS containing 5 mM HEPES, 0.1% (w/v) BSA). 5 μL of 5×[final] test compounds, reference compounds and buffer/DMSO control are then transferred to a 384-well white OptiPlate, containing 20 μL CHO—IP cell suspension (15,000 cells/well, prepared from frozen), and plate is incubated at room temperature for 1 hour. A cAMP standard curve is constructed for each experiment (concentration range of 10000 nM to 0.001 nM, in assay buffer) and 25 μL of each concentration added to the last two columns of the assay plate. The incubation is terminated by the addition of lysis buffer (dH2O; 0.3% (v v^−1) Tween-20) containing 20 units mL^−1 streptavidin coated donor beads and biotinylated cAMP (pre-incubated for 30 minutes) and 20 units mL^−1 anti-cAMP acceptor beads, which are added to the lysis buffer just before addition to the assay plate. The assay plate is then incubated at room temperature in the dark, for 60 minutes with gentle shaking, and read on the Envision plate reader (Perkin Elmer).
The raw data of the reference compounds, test compounds and controls are converted into cAMP concentrations, using the cAMP standard curve, in GraphPadPrism (GraphPad Software Inc). EC50 as well as maximal values of the agonist curves are determined using a 4-parameter logistic equation. The % maximum response values of all test compounds are determined using the top of the treprostinil concentration-response curve.
(cAMP levels reflect the balance of adenylyl cyclase and phosphodiesterase activity.)
Take `Cc1ccc(-c2nc3c(nc2-c2ccc(C)cc2)N(CCCC(O)C(O)CC(=O)O)CCC3)cc1` (racemic) [Example 15.1, rac-7-(2,3-Dip-tolyl-7,8-dihydropyrido[2,3-b]pyrazin-5(6H)-yl)-3,4-dihydroxyheptanoic acid]: the negative-log EC50 (pEC50) (in general, −log10 of the EC50, conventionally taken in molar units) is 7.24.

In the case of `CN1c2nc(-c3ccccc3)c(-c3ccccc3)cc2CCC1CCCCCC(=O)O` (single isomer, unassigned) [Example 2.1, 6-(1-methyl-6,7-diphenyl-1,2,3,4-tetrahydro-1,8-naphthyridin-2-yl)hexanoic acid], the pEC50 was 7.52. Take `CN1c2nc(-c3ccccc3)c(-c3ccccc3)cc2CCC1CCCCCC(=O)O` (single isomer, unassigned) [Example 2.2, 6-(1-methyl-6,7-diphenyl-1,2,3,4-tetrahydro-1,8-naphthyridin-2-yl)hexanoic acid]: the negative logarithm of the EC50 (pEC50) was 7.00. `CC1CCc2cc(-c3ccccc3)c(-c3ccccc3)nc2N1CCCCCCC(=O)O` (single isomer, unassigned) [Example 3.1, 7-(2-methyl-6,7-diphenyl-3,4-dihydro-1,8-naphthyridin-1(2H)-yl)heptanoic acid]: the negative logarithm of the EC50 (pEC50) is 7.44.

As to `CC1CCc2cc(-c3ccccc3)c(-c3ccccc3)nc2N1CCCCCCC(=O)O` (single isomer, unassigned) [Example 3.2, 7-(2-methyl-6,7-diphenyl-3,4-dihydro-1,8-naphthyridin-1(2H)-yl)heptanoic acid], the pEC50 is 6.61. With `Cc1ccc(-c2nc3c(nc2-c2ccc(C)cc2)N(CCCCCCC(=O)O)C(C)CC3)cc1` (single isomer, unassigned) [Example 4.14, 7-(6-methyl-2,3-dip-tolyl-7,8-dihydropyrido[2,3-b]pyrazin-5(6H)-yl)heptanoic acid], the pEC50 was 9.89.

As for `Cc1ccc(-c2nc3c(nc2-c2ccc(C)cc2)N(CCCCCCC(=O)O)C(C)CC3)cc1` (single isomer, unassigned) [Example 4.15, 7-(6-methyl-2,3-dip-tolyl-7,8-dihydropyrido[2,3-b]pyrazin-5(6H)-yl)heptanoic acid], the negative logarithm of the EC50 (pEC50) is 9.32. As for `Cc1ccc(-c2nc3c(nc2-c2ccc(C)cc2)N(CCCCCCC(=O)O)CC(O)C3O)cc1` (single isomer, unassigned) [Example 8.2a, 7-(7,8-dihydroxy-2,3-dip-tolyl-7,8-dihydropyrido[2,3-b]pyrazin-5(6H)-yl)heptanoic acid], the pEC50 is 9.31. As for `Cc1ccc(-c2nc3c(nc2-c2ccc(C)cc2)N(CCCCCCC(=O)O)CC(O)C3O)cc1` (single isomer, unassigned) [Example 8.2b, 7-(7,8-dihydroxy-2,3-dip-tolyl-7,8-dihydropyrido[2,3-b]pyrazin-5(6H)-yl)heptanoic acid], the pEC50 is 9.05. For the compound `Cc1ccc(-c2nc3c(nc2-c2ccc(C)cc2)N(CCCCCCC(=O)O)CCC3O)cc1` (single isomer, unassigned) [Example 9.8, rac-7-(8-Hydroxy-2,3-dip-tolyl-7,8-dihydropyrido[2,3-b]pyrazin-5(6H)-yl)heptanoic acid], the pEC50 is 9.53. Turning to `Cc1ccc(-c2nc3c(nc2-c2ccc(C)cc2)N(CCCCCCC(=O)O)CCC3O)cc1` (single isomer, unassigned) [Example 9.8a, 7-(8-Hydroxy-2,3-dip-tolyl-7,8-dihydropyrido[2,3-b]pyrazin-5(6H)-yl)heptanoic acid], the pEC50 was 9.40. As for `Cc1ccc(-c2nc3c(nc2-c2ccc(C)cc2)N(CCCCCCC(=O)O)CCC3O)cc1` (single isomer, unassigned) [Example 9.8b, 7-(8-Hydroxy-2,3-dip-tolyl-7,8-dihydropyrido[2,3-b]pyrazin-5(6H)-yl)heptanoic acid], the pEC50 is 8.74.

For the compound `Cc1ccc(-c2nc3c(nc2-c2ccc(C)cc2)N(CCCCCCC(=O)O)CC(O)C3)cc1` (single isomer, unassigned) [Example 14.1, 7-(7-hydroxy-2,3-dip-tolyl-7,8-dihydropyrido[2,3-b]pyrazin-5(6H)-yl)heptanoic acid], the negative logarithm of the EC50 (pEC50) was 10.14. In the case of `Cc1ccc(-c2nc3c(nc2-c2ccc(C)cc2)N(CCCCCCC(=O)O)CC(O)C3)cc1` (single isomer, unassigned) [Example 14.2, 7-(7-hydroxy-2,3-dip-tolyl-7,8-dihydropyrido[2,3-b]pyrazin-5(6H)-yl)heptanoic acid], the pEC50 is 10.20. Still for that read-out and setting: then `COC1Cc2nc(-c3ccc(C)cc3)c(-c3ccc(C)cc3)nc2N(CCCCCCC(=O)O)C1` (single isomer, unassigned) [Example 17.1a, 7-(7-methoxy-2,3-dip-tolyl-7,8-dihydropyrido[2,3-b]pyrazin-5(6H)-yl)heptanoic acid], with 8.52; and `COC1Cc2nc(-c3ccc(C)cc3)c(-c3ccc(C)cc3)nc2N(CCCCCCC(=O)O)C1` (single isomer, unassigned) [Example 17.1b, 7-(7-methoxy-2,3-dip-tolyl-7,8-dihydropyrido[2,3-b]pyrazin-5(6H)-yl)heptanoic acid], with 8.32. For `O=C(O)CCCCCCN1CCCc2cc(-c3ccccc3)c(-c3ccccc3)nc21` [Example 1.1, 7-(6,7-Diphenyl-3,4-dihydro-1,8-naphthyridin-1(2H)-yl)heptanoic acid], the negative logarithm of the EC50 (pEC50) was 8.26. On the same count and under the same terms, with `O=C(O)CCCCCCN1CCCc2nc(-c3ccccc3)c(-c3ccccc3)nc21` [Example 4.1, 7-(2,3-diphenyl-7,8-dihydropyrido[3,2-b]pyrazin-5(6H)-yl)heptanoic acid] the figure was 8.92. On to `Cc1ccc(-c2nc3c(nc2-c2ccc(C)cc2)N(CCCCCCC(=O)O)CCC3)cc1` [Example 4.3, 7-(2,3-Dip-tolyl-7,8-dihydropyrido[2,3-b]pyrazin-5(6H)-yl)heptanoic acid], for which the negative logarithm of the EC50 (pEC50) is 9.96. Turning to `Cc1ccc(-c2nc3c(nc2-c2ccccc2)CCCN3CCCCCCC(=O)O)cc1` [Example 5.2, 7-(2-Phenyl-3-p-tolyl-7,8-dihydropyrido[2,3-b]pyrazin-5(6H)-yl)heptanoic acid], the pEC50 was 10.10. On to `Cc1ccc(-c2nc3c(nc2-c2ccc(C)c(F)c2)N(CCCCCCC(=O)O)CCC3)cc1F` [Example 6.1, 7-(2,3-bis(3-Fluoro-4-methylphenyl)-7,8-dihydropyrido[2,3-b]pyrazin-5(6H)-yl)heptanoic acid], for which the negative logarithm of the EC50 (pEC50) was 9.49. As for `O=C(O)CCCCCCN1CC[C@@H](O)c2nc(-c3ccccc3)c(-c3ccccc3)nc21` [Example 9.1, (R)-7-(8-Hydroxy-2,3-diphenyl-7,8-dihydropyrido[2,3-b]pyrazin-5(6H)-yl)heptanoic acid], the negative-log EC50 (pEC50) was 8.25. As to `O=C(O)CCCCCCN1CC[C@H](O)c2nc(-c3ccccc3)c(-c3ccccc3)nc21` [Example 9.2, (S)-7-(8-Hydroxy-2,3-diphenyl-7,8-dihydropyrido[2,3-b]pyrazin-5(6H)-yl)heptanoic acid], the negative logarithm of the EC50 (pEC50) is 8.07. For the compound `Cc1ccc(-c2nc3c(nc2-c2ccc(C)cc2)N(CCCCCCC(=O)O)C(=O)CC3)cc1` [Example 12.1, 7-(6-oxo-2,3-dip-tolyl-7,8-dihydropyrido[2,3-b]pyrazin-5(6H)-yl)heptanoic acid], the negative-log EC50 (pEC50) was 10.12. Regarding `Cc1ccc(-c2nc3c(nc2-c2ccc(C)cc2)N(CCCCCCC(=O)O)C(=O)C(O)C3)cc1` (stereo not shown) [Example 16.1, 7-(7-Hydroxy-6-oxo-2,3-dip-tolyl-7,8-dihydropyrido[2,3-b]pyrazin-5(6H)-yl)heptanoic acid], the pEC50 was 9.13.

The assay is the same for the next values; noted with them: read-out: EC50 values in the data measurements described above.
For `O=C(O)CCCCN1CCCc2cc(-c3ccccc3)c(-c3ccccc3)nc21` [5-(6,7-diphenyl-3,4-dihydro-1,8-naphthyridin-1(2H)-yl)pentanoic acid], the pEC50 was < 5.00. Turning to `CCCc1ccc(-c2nc3c(nc2-c2ccc(CCC)cc2)N(CCCCCC(=O)OCC)CCC3)cc1` [ethyl 6-(2,3-bis(4-propylphenyl)-7,8-dihydropyrido[2,3-b]pyrazin-5(6H)-yl)hexanoate], the pEC50 was < 5.00. `CCOC(=O)CCCCCCN1CCCc2nc(-c3cccc(C)c3)c(-c3ccc(C)cc3)nc21` [ethyl 7-(2-(m-tolyl)-3-(p-tolyl)-7,8-dihydropyrido[2,3-b]pyrazin-5(6H)-yl)heptanoate]: the pEC50 is < 5.00.
